Measurements taken from patent US20260151370A1, “Nutritional composition for neurodegeneration and neurotrauma” (N.V. Nutricia, priority 2023, published 2026).

Test system: PC12 neuronal cells
Assay: Neurite outgrowth in NGF-differentiated PC12 neuronal cell cultures (Calcein-AM/Hoechst imaging)
Assay type: cell-based
Description: In order to assess the effects of nutritional components on axonal outgrowth and dendritic arborization underlying functional brain connectivity, the effects of nutrient supplementation on neurite outgrowth parameters in PC12 pheochromocytoma cells was investigated. PC12 neuronal cell model is one of the most widely used cell models for the study of neuronal differentiation. PC12 pheochromocytoma cells were grown in DMEM (Gibco), supplemented with 10% fetal bovine serum (FBS), penicillin (100 units/ml), and streptomycin (100 μg/ml) (Gibco), under a humidified atmosphere with 95% air and 5% CO2 at 37° C. Cells were seeded onto a collagen (0.01 mg/ml) coated 96-well plates at a density of 5000 cells/well and after 24 hours supplemented with medium containing 20 ng/ml nerve growth factor (NGF) with or without the components as defined in the present and in the following examples. Cell cultures were incubated at 37° C. in 5% CO2 and medium was replaced every 2-3 days. DHA and EPA were resuspended in absolute ethanol and diluted 5 times in fetal bovine serum. Other compounds were dissolved in DMEM. All compounds were purchased from Sigma (Zwijndrecht, The Netherlands). Supplementation of cells was performed in 6-fold in 96 wells plates. Neurite outgrowth of these conditions was compared to non-supplemented cells. After 48 hours of nutrient supplementation, cell bodies and neurites were stained using Calcein-AM stain (0.2 μg/ml) (Invitrogen, batch #C3100MP) and the nuclei were counterstained using Hoechst stain (1.2 μg/ml) (Thermo Scientific, batch #62249) in 100 μl culture medium per well and incubated for 20 min at 37° C. Subsequently, FITC and DAPI images (9 images per well, 6 wells per condition) were taken using an ImageXpress Micro Confocal high content imaging system (Molecular Devices). Neurite length was quantified using the neurite outgrowth module in MetaXpress. Image analysis was carried out using the neurite outgrowth analysis module in MetaXpress (Molecular Devices). The measurements taken from each well included the number of nuclei and the mean neurite outgrowth (μm) per cell. The data was normalized to and expressed as a relative percentage of the plate-averaged value of the vehicle-treated control wells.

[1] = FIG. 4 plate: total 20 μM choline from chol-Cl, PC or both
[2] = FIG. 8 plate: BA 200 μM, B2 0.25 μM, DHA 2.5 μM, D3 0.25 μM, PC 20 μM, alone or combined
[3] = FIG. 9 first plate: B2 0.25 μM, D3 0.75 μM, PC 15 μM, BA 40 μM, alone or together with reference diet
[4] = FIG. 1 plate: DHA 6.7 μM, EPA 10 μM, vitamin B2 1.25 μM, vitamin D3 0.25 μM, alone or combined, 48 hours, 20 ng/ml NGF

phosphatidylcholine [PC]
neurite outgrowth compared to control [1]: increases neurite outgrowth more than supplementation with 100 mole % chol-Cl
observed mean neurite outgrowth, percentage relative to control (100%) (FIG. 5 plate: choline 20 μM (chol-Cl and/or PC), DHA 3.3 μM, B2 0.5 μM, D3 0.25 μM): increased neurite outgrowth more than supplementation with 100 mole % chol-Cl
observed mean neurite outgrowth, percentage relative to control (100%) [2]: increased neurite outgrowth more than supplementation of vitamin B2 and D3 alone
observed mean neurite outgrowth, percentage relative to control (100%) [3]: increased neurite outgrowth

C[N+](C)(C)CCO.[Cl-] [chol-Cl, choline-chloride]
neurite outgrowth compared to control [1]: enhance neurite outgrowth

Cc1cc2nc3c(=O)[nH]c(=O)nc-3n(C[C@H](O)[C@H](O)[C@H](O)CO)c2cc1C [vitamin B2, riboflavin]
observed mean neurite outgrowth, percentage relative to control (100%) [4]: increased neurite outgrowth
observed mean neurite outgrowth, percentage relative to control (100%) [3]: increased neurite outgrowth

CCCC(=O)O [BA, butyric acid]
neurite outgrowth compared to control (FIG. 7 plate: BA 200 μM): strongest effect on neurite outgrowth
neurite outgrowth compared to control (FIG. 7 plate: BA 12.5, 25, 50, 100 and 200 μM): increased neurite outgrowth in a dose-dependent manner
observed mean neurite outgrowth, percentage relative to control (100%) [2]: increased neurite outgrowth more than supplementation of vitamin B2 and D3 alone
observed mean neurite outgrowth, percentage relative to control (100%) [3]: increased neurite outgrowth

C=C1CC[C@H](O)C/C1=C/C=C1\CCC[C@]2(C)[C@@H]([C@H](C)CCCC(C)C)CC[C@@H]12 [vitamin D3, cholecalciferol]
observed mean neurite outgrowth, percentage relative to control (100%) [4]: increased neurite outgrowth
observed mean neurite outgrowth, percentage relative to control (100%) [3]: increased neurite outgrowth
